# Data: ChEMBL document CHEMBL1201862, “PubChem BioAssay data set” (2004)
# Activity calls are given as the source filed them.
# Assays:
# Cytochrome P450 1A2 = target: T1, Cytochrome P450 1A2 (Homo sapiens, UniProt P05177);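 note: PubChem cytochrome P450 panel assay, CYP1A2 panel member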
# T1 sequence (P05177 whole entry): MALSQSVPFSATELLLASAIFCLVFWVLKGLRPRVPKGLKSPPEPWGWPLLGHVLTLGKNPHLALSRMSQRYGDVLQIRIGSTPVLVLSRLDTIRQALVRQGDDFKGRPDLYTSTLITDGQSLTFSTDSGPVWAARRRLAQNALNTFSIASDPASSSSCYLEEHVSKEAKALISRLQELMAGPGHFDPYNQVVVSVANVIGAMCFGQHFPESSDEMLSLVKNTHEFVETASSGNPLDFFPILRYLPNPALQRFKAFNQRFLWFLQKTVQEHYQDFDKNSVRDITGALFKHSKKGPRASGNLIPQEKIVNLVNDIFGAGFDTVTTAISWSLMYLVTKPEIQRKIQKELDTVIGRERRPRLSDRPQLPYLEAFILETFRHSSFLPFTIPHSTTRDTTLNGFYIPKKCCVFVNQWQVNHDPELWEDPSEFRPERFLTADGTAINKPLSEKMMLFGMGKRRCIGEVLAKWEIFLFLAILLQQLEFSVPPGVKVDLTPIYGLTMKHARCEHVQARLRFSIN
# [1] = Trypanosoma cruzi growth suppression in host cells – NIH3T3 host cells, beta-gal luminescence, confirmation (AID 2044); assay type: functional, cell-based;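 note: intracellular parasites grown in NIH/3T3 mouse fibroblasts as host cells; luminescent beta-galactosidase reporter signal from transgenic T. cruzi replicating inside host cells; inhibitors lower the luminescence signal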
# [2] = NIH3T3 cell viability loss – ATP luminescence, mouse fibroblasts, counter-screen, dose response (AID 2010); assay type: functional, cell-based;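 note: cells exposed to compound for about 90 hours before reading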
# Cytochrome P450 2C19 = Cytochrome P450 2C19 (Homo sapiens, UniProt P33261); assay: Cytochrome panel assay with activity outcomes. Panel member name: p450-cyp2c19 Compounds with AC50 equal or less than 10 uM are considered active; assay type: functional
# Protein RecA = target: T2, Protein RecA (Mycobacterium tuberculosis, UniProt P9WHJ3); assay: Fluorescence Cell-Free Homogeneous Dose Retest to Identify Inhibitors of RecA-Intein Splicing Activity. [Related pubchem assays (depositor defined):AID2097, AID2223, AID489010, AID492950]; assay type: functional
# T2 sequence (P9WHJ3 whole entry): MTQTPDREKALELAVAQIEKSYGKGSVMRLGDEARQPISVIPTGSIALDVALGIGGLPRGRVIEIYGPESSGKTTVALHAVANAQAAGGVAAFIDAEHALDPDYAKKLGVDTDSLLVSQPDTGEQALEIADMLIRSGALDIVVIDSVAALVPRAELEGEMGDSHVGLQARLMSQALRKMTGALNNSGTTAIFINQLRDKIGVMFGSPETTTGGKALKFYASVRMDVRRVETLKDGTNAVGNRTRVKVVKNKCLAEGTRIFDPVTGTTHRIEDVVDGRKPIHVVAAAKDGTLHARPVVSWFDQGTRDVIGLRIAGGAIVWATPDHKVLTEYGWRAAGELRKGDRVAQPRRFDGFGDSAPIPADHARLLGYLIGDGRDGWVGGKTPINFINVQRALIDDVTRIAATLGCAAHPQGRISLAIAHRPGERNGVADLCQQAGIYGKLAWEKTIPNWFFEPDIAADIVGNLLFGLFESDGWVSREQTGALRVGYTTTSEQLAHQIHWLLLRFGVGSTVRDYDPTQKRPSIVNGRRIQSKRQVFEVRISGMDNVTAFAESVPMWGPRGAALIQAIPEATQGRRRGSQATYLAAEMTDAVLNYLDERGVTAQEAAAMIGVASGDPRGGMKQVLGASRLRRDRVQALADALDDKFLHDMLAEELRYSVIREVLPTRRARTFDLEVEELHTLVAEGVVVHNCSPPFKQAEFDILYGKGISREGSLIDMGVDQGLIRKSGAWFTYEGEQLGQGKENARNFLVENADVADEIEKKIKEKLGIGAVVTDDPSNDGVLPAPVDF
# [3] = target: T3, Replicative DNA helicase DnaB (Mycobacterium tuberculosis, UniProt P9WMR3); assay: DnaB intein splicing inhibitors, dose response, biochemical, cell-free fluorescence (AID 449749); assay type: functional
# T3 sequence (P9WMR3 whole entry): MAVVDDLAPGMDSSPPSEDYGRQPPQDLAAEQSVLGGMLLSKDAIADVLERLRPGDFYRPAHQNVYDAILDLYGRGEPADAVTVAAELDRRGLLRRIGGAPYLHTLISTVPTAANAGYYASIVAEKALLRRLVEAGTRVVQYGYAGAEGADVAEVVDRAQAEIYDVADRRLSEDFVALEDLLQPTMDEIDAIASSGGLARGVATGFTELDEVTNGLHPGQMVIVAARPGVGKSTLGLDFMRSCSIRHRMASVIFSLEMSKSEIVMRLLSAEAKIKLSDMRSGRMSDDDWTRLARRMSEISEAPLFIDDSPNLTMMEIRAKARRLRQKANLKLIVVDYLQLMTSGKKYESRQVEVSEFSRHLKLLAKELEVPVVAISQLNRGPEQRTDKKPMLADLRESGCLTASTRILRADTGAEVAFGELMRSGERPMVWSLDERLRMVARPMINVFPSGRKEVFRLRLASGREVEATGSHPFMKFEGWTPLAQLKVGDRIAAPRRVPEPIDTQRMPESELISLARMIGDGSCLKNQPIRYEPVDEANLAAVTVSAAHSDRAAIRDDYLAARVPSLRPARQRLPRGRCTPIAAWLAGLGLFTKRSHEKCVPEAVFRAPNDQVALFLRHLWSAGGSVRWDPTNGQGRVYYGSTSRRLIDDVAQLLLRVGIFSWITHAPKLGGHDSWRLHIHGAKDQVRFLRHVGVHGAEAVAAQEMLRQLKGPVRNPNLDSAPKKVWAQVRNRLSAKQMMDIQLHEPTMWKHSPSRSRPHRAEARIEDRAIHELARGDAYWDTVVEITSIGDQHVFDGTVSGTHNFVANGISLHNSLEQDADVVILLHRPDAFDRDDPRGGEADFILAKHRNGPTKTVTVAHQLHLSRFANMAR
# INS1 = assay: INS-1E survival protection against cytokine death – cell-based, luminescence, retest, dose response (AID 449756); assay type: functional; details: Rattus norvegicus;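 note: cell death triggered by IL-1 beta plus TNF-alpha plus IFN-gamma mixture; protective hits raise ATP signal compared with cytokine alone wells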
# Cytochrome P450 2C19, sequence (P33261 whole entry): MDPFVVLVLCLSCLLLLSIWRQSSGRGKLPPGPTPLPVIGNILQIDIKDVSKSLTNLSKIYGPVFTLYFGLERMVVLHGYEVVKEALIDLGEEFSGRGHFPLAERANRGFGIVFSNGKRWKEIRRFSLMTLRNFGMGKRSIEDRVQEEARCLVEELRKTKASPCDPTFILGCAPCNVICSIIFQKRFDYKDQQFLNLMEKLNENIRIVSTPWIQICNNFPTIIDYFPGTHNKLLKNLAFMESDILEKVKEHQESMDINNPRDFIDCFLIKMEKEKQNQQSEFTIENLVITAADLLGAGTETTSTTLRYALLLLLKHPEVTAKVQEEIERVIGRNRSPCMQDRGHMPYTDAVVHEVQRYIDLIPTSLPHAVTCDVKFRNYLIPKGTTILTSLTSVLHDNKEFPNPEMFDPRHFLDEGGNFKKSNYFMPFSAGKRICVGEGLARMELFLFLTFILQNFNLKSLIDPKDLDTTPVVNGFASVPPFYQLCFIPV
SMILES,AC50 (Cytochrome P450 1A2),EC50 [1],EC50 [2],further results
C[C@@](N)(C(=O)O)c1ccc(P(=O)(O)O)cc1,39.8 µM (inconclusive),,,
Cn1cc(CN2CCCC(CO)(Cc3ccccc3)C2)c2ccccc21 (stereo unspecified),,0.62 µM (active),> 60 µM (not active),
Cc1cc(C(=O)NNC(=S)NC(C)c2ccccc2)c2ccccc2n1 (stereo unspecified),31.6 µM (inconclusive),,,AC50 (Cytochrome P450 2C19; read-out: AC50): 22.4 µM (inconclusive)
COc1ccc(/C=C2\CCCc3c2nc2ccccc2c3C(=O)OCC(=O)c2c(N)n(C)c(=O)n(C)c2=O)cc1,,1.05 µM (active),> 60 µM (not active),
CCOC(=O)Nc1ccc2c(c1)N(C(=O)CCN(C)C)c1ccccc1S2,,1.8 µM (active),> 60 µM (not active),
O=C1c2ccccc2C(=O)N1CCSC(=S)N1CCOCC1,3.16 µM (inconclusive),,,
O=C(Nc1nc(-c2ccccc2)c(-c2ccccc2)s1)c1ccc(S(=O)(=O)N(CCCl)CCCl)cc1,,1.25 µM (active),> 30 µM (not active),
N#Cc1cnn(-c2nc(SCc3ccccc3)nc3sc4c(c23)CCCC4)c1N,,2.24 µM (active),> 60 µM (not active),
O=C(c1c[nH]c(C(=O)C(Cl)(Cl)Cl)c1)c1ccc(F)cc1Cl,,,,EC50 (Protein RecA): 4.49 µM (active); AC50 [3]: 13 µM (active)
CC1CC(=O)c2cnc(N)nc2C1 (stereo unspecified),,,,AC50 (Cytochrome P450 2C19): inconclusive
O=C(c1cccc(C(F)(F)F)c1)C1CCCN(Cc2ncc[nH]2)C1 (stereo unspecified),,,,EC50 (Protein RecA): > 380 µM (inactive); AC50 [3]: > 380 µM (inactive)
Cc1cc[n+](CC(=O)Nc2cc(C(F)(F)F)ccc2Cl)cc1,15.8 µM (inconclusive),,,AC50 (Cytochrome P450 2C19; read-out: AC50): 3.98 µM (inconclusive)
Cc1nc2ncnn2c(O)c1NC(=O)CC12CC3CC(CC(C3)C1)C2,,,,AC50 (Cytochrome P450 2C19; read-out: AC50): 44.7 µM (inconclusive)
COc1ccccc1NC(=O)CCN1C(=O)C2CC=C(Cl)CC2C1=O (stereo unspecified),,,,AC50 (Cytochrome P450 2C19; read-out: AC50): 7.94 µM (inconclusive)
Cc1cc(C)c(C#N)c(Oc2ccc(F)cc2)n1,,,,AC50 (Cytochrome P450 2C19; read-out: AC50): 39.8 µM (inconclusive)
Cc1ccc(C)c(/N=C2\C(Cl)=C(O)OC2OC(=O)c2ccco2)c1 (stereo unspecified),,,,EC50 (Protein RecA): 9.37 µM (active); AC50 [3]: 20 µM (active)
CCOc1ccc(N(C(C)C(=O)N/N=C(\C)c2cccc(NC(=O)c3ccccc3)c2)S(C)(=O)=O)cc1 (stereo unspecified),14.1 µM (inconclusive),,,
COCc1c(Br)c(C)nc(OCC(=O)N/N=C/c2cc(C)n(-c3ccc([N+](=O)[O-])cc3)c2C)c1C#N,,1.95 µM (active),> 60 µM (not active),
NC(=S)N/N=C/c1ccc(-c2cc(Cl)c(Cl)cc2Cl)o1,,0.122 µM (active),> 60 µM (inconclusive),
CC(C)(C)c1cnnn1-c1ccc(/C=N/Nc2ccc([N+](=O)[O-])cc2)cc1,,,,AC50 (INS1): 4.33 µM (active)
Fc1ccc(N/N=C/c2ccc(N3CCOCC3)cc2)c(F)c1,,0.406 µM (active),> 30 µM (not active),
CN1CCN(c2ccc([N+](=O)[O-])c3[nH]o[n+](=O)c23)CC1,0.398 µM (inconclusive),,,
CCNC(=O)c1ccc(-n2nc(C)cc2-c2ccccc2)cc1,14.1 µM (inconclusive),,,
